Laboratory results: paper PMC10484210 (Biochemistry, 2023)

How the values were obtained:
[1] = biological target: BcPurE (Burkholderia cenocepacia, UniProt B4EA21); test: biochemical; format: biochemical; settings: for inhibition of PurE activity in initial screen: two concentrations, 10 and 100 μM, against BcPurE
[2] = biological target: human PAICS (Homo sapiens, UniProt P22234); format: biochemical; settings: two concentrations, 10 and 100 μM
Sequence of human PAICS (P22234 whole entry): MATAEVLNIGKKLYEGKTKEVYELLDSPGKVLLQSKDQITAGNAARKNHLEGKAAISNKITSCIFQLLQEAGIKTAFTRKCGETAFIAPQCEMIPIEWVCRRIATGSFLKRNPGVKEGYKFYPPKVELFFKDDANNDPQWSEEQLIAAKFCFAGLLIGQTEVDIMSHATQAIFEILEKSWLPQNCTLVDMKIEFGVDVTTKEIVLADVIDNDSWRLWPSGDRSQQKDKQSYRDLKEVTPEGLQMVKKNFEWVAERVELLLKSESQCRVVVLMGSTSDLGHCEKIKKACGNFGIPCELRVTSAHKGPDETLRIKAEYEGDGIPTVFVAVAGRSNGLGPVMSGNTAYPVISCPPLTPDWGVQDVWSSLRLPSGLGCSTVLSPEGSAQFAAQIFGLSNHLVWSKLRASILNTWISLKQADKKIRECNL

Sequence of BcPurE (B4EA21 1-173): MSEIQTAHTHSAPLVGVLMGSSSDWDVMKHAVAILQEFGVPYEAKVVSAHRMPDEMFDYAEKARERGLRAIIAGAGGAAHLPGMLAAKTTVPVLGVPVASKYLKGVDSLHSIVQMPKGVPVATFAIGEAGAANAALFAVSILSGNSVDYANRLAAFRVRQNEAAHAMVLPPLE

| SMILES | inhibition of PurE activity in initial screen [1] | inhibition of human PAICS decarboxylation activity [2] | IC50 [1] [µM] |
| --- | --- | --- | --- |
| CN(C)C/C=C/C(=O)Nc1cc2c(Nc3ccc(F)c(Cl)c3)ncnc2cc1O[C@H]1CCOC1 [Afatinib] | some degree of inhibition | do inhibit | – |
| COc1cc2nc(N(C)CCCNC(=O)C3CCCO3)nc(N)c2cc1OC (centres unmarked) [Alfuzosin] | some degree of inhibition | little or no inhibition | 47 |
| COc1ccc(CN=c2[nH]c(N3CCC[C@H]3CO)ncc2C(=O)NCc2ncccn2)cc1Cl [Avanafil] | some degree of inhibition | little or no inhibition | – |
| CCc1cc2c(cc1CC)CC(NC[C@H](O)c1ccc(O)c3[nH]c(=O)ccc13)C2 [Indacaterol] | some degree of inhibition | do inhibit | – |
| CC(=O)N1CCN(c2ccc(OCC3COC(Cn4ccnc4)(c4ccc(Cl)cc4Cl)O3)cc2)CC1 (centres unmarked) [Ketoconazole] | some degree of inhibition | little or no inhibition | – |
